US20120121508A1, “RADIOLABELED CGRP ANTAGONISTS” (Merck Sharp & Dohme Corp., priority 2009, published 2012)
Values joined by “and” are separate entries in the source; they are usually repeats but may differ in a detail not shown here. Equal entries are not always repeated.

How the values were obtained:
[1] = target: T1, human CGRP receptor (CL receptor/RAMP1) (Homo sapiens, UniProt O60894+Q16602); assay: Recombinant receptor binding assay vs [^125I]CGRP
T1 construct: expressed in transfected cells
T1 sequence (Q16602 23-461): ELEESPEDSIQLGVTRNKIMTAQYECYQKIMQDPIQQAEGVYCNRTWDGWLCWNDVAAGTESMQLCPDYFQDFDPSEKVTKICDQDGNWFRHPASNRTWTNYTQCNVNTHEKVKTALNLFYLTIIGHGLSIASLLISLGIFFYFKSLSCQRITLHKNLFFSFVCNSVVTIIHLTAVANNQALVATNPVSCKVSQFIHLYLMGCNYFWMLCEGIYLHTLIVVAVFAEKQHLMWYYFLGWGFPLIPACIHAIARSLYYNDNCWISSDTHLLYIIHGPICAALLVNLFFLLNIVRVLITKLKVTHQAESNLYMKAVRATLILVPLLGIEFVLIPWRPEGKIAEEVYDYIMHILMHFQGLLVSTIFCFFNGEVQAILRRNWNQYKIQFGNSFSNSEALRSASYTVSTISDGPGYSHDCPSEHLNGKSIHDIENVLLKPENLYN
T1 sequence (O60894 27-148): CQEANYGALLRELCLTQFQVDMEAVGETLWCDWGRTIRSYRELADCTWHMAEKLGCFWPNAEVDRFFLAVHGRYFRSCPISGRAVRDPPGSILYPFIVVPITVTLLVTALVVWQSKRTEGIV
Experimental: RECOMBINANT RECEPTOR: Human CL receptor (Genbank accession number L76380) was subcloned into the expression vector pIREShyg2 (BD Biosciences Clontech) as a 5′NheI and 3′ PmeI fragment. Human RAMP1 (Genbank accession number AJ001014) was subcloned into the expression vector pIRESpuro2 (BD Biosciences Clontech) as a 5′NheI and 3′NotI fragment. HEK 293 cells (human embryonic kidney cells; ATCC #CRL-1573) were cultured in DMEM with 4.5 g/L glucose, 1 mM sodium pyruvate and 2 mM glutamine supplemented with 10% fetal bovine serum (FBS), 100 units/mL penicillin and 100 μg/mL streptomycin, and maintained at 37° C. and 95% humidity. Cells were subcultured by treatment with 0.25% trypsin with 0.1% EDTA in HBSS. Stable cell line generation was accomplished by co-transfecting 10 μg of DNA with 30 μg Lipofectamine 2000 (Invitrogen) in 75 cm^2 flasks. CL receptor and RAMP1 expression constructs were co-transfected in equal amounts. Twenty-four hours after transfection the cells were diluted and selective medium (growth medium+300 μg/mL hygromycin and 1 μg/mL puromycin) was added the following day. […]
(§1) The octanol/water partition coefficient (Log P) of the compound of Example 1 was determined by partitioning the compound between octanol and phosphate buffer at pH 7.4 and measuring the concentration of the compound in each layer by LC-MS/MS. […]

[2] = target: T1, human CGRP receptor (CL receptor/RAMP1); assay: Recombinant receptor cAMP functional assay; assay type: cell-based; details: in the presence of 50% human serum
Experimental: RECOMBINANT RECEPTOR: Human CL receptor (Genbank accession number L76380) was subcloned into the expression vector pIREShyg2 (BD Biosciences Clontech) as a 5′NheI and 3′ PmeI fragment. Human RAMP1 (Genbank accession number AJ001014) was subcloned into the expression vector pIRESpuro2 (BD Biosciences Clontech) as a 5′NheI and 3′NotI fragment. HEK 293 cells (human embryonic kidney cells; ATCC #CRL-1573) were cultured in DMEM with 4.5 g/L glucose, 1 mM sodium pyruvate and 2 mM glutamine supplemented with 10% fetal bovine serum (FBS), 100 units/mL penicillin and 100 μg/mL streptomycin, and maintained at 37° C. and 95% humidity. Cells were subcultured by treatment with 0.25% trypsin with 0.1% EDTA in HBSS. […]
RECOMBINANT RECEPTOR FUNCTIONAL ASSAY: Cells were plated in complete growth medium at 85,000 cells/well in 96-well poly-D-lysine coated plates (Corning) and cultured for ˜19 h before assay. […] Dose response curves were plotted and IC50 values determined from a 4-parameter logistic fit as defined by the equation y=((a−d)/(1+(x/c)^b)+d, where y=response, x=dose, a=max response, d=min response, c=inflection point and b=slope.
as §1

[3] = target: adrenomedullin 2 receptor, CLR-RAMP3 (Homo sapiens, UniProt O60896+Q16602); assay: Adrenomedullin 2 receptor binding (selectivity)
Sequence of adrenomedullin 2 receptor, CLR-RAMP3 (Q16602 23-461, one chain of several): as the sequence (Q16602 23-461) above
Experimental: (§2) The octanol/water partition coefficient (Log P) of the compound of Example 1 was determined by partitioning the compound between octanol and phosphate buffer at pH 7.4 and measuring the concentration of the compound in each layer by LC-MS/MS. […] The compound of Example 1 was tested in the receptor binding and functional cell-based assays carried out in the presence and absence of human serum.

[4] = target: human AMY1 receptor (CTR/RAMP1) (Homo sapiens, UniProt O60894+P30988); assay: Amylin 1 receptor binding
Sequence of human AMY1 receptor (CTR/RAMP1) (O60894 27-148, one chain of several): as the sequence (O60894 27-148) above
Experimental: (§3) The compound of Example 1 was evaluated against the related amylin 1 (AMY1; CTR/RAMP1) and amylin 3 (AMY3; CTR/RAMP3) receptors. […] Although the compound of Example 1 binds with high affinity to the related AMY1 receptor, this is not anticipated to negatively impact the utility of this molecule as a suitable PET tracer. […] Since the methods used to quantify CGRP receptor occupancy rely primarily on the cerebellar region, the affinity of the compound of Example 1 for AMY1 receptor should not interfere with the use of the PET tracer to accurately determine CGRP receptor occupancy.

[5] = target: T2, human AMY3 receptor (CTR/RAMP3) (Homo sapiens, UniProt O60896+P30988); assay: Amylin 3 receptor binding
T2 sequence (P30988 25-474): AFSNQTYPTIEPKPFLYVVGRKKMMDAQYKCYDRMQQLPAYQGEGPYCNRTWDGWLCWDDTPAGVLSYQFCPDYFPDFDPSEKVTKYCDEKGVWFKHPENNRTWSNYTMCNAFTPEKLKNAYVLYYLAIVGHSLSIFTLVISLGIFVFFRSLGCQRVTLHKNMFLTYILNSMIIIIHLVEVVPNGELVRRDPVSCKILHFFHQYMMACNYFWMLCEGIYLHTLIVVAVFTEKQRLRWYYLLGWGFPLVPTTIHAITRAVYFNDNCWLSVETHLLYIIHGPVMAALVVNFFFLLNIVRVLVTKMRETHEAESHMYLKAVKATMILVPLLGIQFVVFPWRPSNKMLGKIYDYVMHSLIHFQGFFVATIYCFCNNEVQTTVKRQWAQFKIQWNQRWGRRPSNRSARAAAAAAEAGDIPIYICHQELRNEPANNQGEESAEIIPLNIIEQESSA
T2 sequence (O60896 24-148): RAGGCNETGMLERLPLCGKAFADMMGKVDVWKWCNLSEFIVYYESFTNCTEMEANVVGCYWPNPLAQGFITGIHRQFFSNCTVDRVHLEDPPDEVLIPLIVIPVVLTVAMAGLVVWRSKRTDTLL
Experimental: as §3

[6] = Octanol/water partition coefficient (Log P); assay type: physicochemical; details: octanol / phosphate buffer pH 7.4, LC-MS/MS
Experimental: as §2

human P-glycoprotein = target: T3, human P-glycoprotein (Homo sapiens, UniProt P08183); assay: Bidirectional transport across LLC-PK1 monolayers, human P-gp; assay type: in vitro ADME
T3 construct: expressed in transfected cells; host or cells: LLC-PK1
T3 sequence (P08183 whole entry): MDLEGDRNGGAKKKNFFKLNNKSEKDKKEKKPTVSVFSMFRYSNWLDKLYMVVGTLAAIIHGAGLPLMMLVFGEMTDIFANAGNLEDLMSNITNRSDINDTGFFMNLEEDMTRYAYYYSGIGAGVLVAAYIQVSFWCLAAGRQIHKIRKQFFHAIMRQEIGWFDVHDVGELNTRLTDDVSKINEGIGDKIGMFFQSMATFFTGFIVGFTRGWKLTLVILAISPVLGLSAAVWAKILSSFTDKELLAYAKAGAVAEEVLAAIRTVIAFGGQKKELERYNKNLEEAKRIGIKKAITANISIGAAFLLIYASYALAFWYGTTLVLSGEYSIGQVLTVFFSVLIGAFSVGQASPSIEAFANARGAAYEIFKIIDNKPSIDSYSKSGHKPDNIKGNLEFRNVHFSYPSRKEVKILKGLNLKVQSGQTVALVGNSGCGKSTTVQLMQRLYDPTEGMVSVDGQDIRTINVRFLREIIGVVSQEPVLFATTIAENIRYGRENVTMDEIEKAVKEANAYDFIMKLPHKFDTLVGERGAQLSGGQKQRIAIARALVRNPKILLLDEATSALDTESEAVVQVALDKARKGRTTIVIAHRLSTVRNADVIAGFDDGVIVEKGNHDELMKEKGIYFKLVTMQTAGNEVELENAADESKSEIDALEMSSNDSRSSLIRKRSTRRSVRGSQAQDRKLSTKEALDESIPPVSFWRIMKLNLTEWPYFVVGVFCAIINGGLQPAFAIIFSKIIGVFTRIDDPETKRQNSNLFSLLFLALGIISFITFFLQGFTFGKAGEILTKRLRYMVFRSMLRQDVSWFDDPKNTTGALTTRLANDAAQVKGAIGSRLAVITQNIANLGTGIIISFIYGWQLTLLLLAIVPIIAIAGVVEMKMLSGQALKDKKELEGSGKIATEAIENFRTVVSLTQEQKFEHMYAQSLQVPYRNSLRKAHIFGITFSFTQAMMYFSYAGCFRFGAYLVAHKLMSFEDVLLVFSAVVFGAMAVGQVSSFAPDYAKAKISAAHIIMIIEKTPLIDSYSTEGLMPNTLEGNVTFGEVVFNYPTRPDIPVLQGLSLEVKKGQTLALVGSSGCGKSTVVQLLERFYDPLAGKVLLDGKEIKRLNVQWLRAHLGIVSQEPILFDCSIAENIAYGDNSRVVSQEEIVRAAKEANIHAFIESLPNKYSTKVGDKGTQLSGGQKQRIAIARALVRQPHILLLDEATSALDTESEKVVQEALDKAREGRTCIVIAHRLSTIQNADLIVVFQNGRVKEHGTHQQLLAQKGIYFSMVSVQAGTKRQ
Experimental: (§4) The bidirectional transport of the compound of Example 1 was evaluated across mono-layers of LLC-PK1 cells over-expressing human P-glycoprotein (Ohe et al., 2003).

[7] = target: T4, human P-glycoprotein (P-gp) (Homo sapiens, UniProt P08183); assay: as above; assay type: in vitro ADME; details: LLC-PK1, human P-gp, read-out: B−A/A−B ratio
T4 construct: expressed in transfected cells; host or cells: LLC-PK1
T4 sequence (P08183 whole entry): as above
Experimental: as §4

rat P-gp = assay: Bidirectional transport, rat P-gp; assay type: in vitro ADME
Experimental: [The source words this procedure for another species and reports this species under the same test.] as §4

[8] = test system: African green monkey P-gp; assay: Bidirectional transport, African green monkey P-gp; assay type: in vitro ADME
[9] = Passive permeability (Papp); assay type: in vitro ADME; details: pig, LLC-PK1, read-out: average apparent permeability coefficient (Papp)
Experimental: as §4

CGRP receptor = assay: PET CGRP receptor occupancy study in rhesus monkey brain; assay type: in vivo; details: IV bolus plus constant infusion, Hill equation fit, ±SE
Experimental: Baseline PET scans in rhesus monkey have confirmed the uptake and expected regional distribution of the PET tracer of [^11C]-Example 1 in the brain. […] In vivo occupancy studies were carried out with the compound of Example 1 to examine the utility of the PET tracer of [^11C]-Example 1 to establish a drug plasma level/CGRP receptor occupancy relationship. To establish steady plasma levels of drug, the compound of Example 1 was administered as an IV bolus plus constant infusion starting 60 minutes before the PET tracer of [^11C]-Example 1 injection; drug infusion was continued for the duration of the scan. Dynamic PET studies were acquired for 120-min following the PET tracer of [^11C]-Example 1 IV bolus administration. CGRP receptor availability was estimated using data-driven methods to describe the PET tracer of [^11C]-Example 1 plasma-brain kinetics. For each study, the PET tracer of [^11C]-Example 1 plasma concentration was obtained from the measurement of total radioactivity in arterial plasma with correction for the fraction of intact tracer as determined by HPLC analysis.
The absence of a reference region (devoid of CGRP receptor) requires the application of tracer kinetic modeling techniques using the PET tracer of [^11C]-Example 1 arterial plasma concentration in order to accurately quantify CGRP receptor occupancy in rhesus monkey. […]

SMILES: CN1C[C@@](C)(c2cc(F)cc(F)c2)N(CC(=O)Nc2ccc3c(c2)C[C@@]2(C3)C(=O)Nc3ncccc32)C(=O)C12CCCC2 [Example 1, 2-[(8R)-8-(3,5-Difluorophenyl)-6,8-dimethyl-10-oxo-6,9-diazaspiro[4.5]dec-9-yl]-N-[(2R)-2′-oxo-1,1′,2′,3-tetrahydrospiro[indene-2,3′-pyrrolo[2,3-b]pyridin]-5-yl]acetamide]
- Ki [1]: 0.039 nM
- IC50 [2]: 0.21 nM
- Ki [3]: 211 nM
- Ki [4]: 0.6 nM
- Ki [5]: 212 nM
- logP [6]: 3.38
- P-gp substrate status (human P-glycoprotein; human P-gp, 5 μM): not a substrate
- P-gp substrate status (human P-glycoprotein; human P-gp, 1, 0.5 and 0.1 μM): weak substrate
- efflux ratio at 0.1 μM ([7]; 0.1 μM): 3.5
- efflux ratio at 0.5 μM ([7]; 0.5 μM): 2.9
- efflux ratio at 1 μM ([7]; 1 μM): 3
- efflux ratio at 5 μM ([7]; 5 μM): 1.7
- P-gp substrate status (rat P-gp; 5 μM): borderline substrate
- efflux ratio at 5 μM (rat P-gp; LLC-PK1, read-out: B−A/A−B ratio): 3.1
- P-gp substrate status ([8]; African green monkey P-gp, 1, 0.5 and 0.1 μM): weak substrate
- efflux ratio at 0.1 μM ([8]; LLC-PK1, African green monkey P-gp, 0.1 μM, read-out: B−A/A−B ratio): 5.4
- efflux ratio at 0.5 μM ([8]; LLC-PK1, African green monkey P-gp, 0.5 μM, read-out: B−A/A−B ratio): 4.1
- efflux ratio at 1 μM ([8]; LLC-PK1, African green monkey P-gp, 1 μM, read-out: B−A/A−B ratio): 3.9
- Papp [9]: 26 ×10⁻⁶ cm/s
- Occ50: plasma level for 50% CGRP receptor occupancy (CGRP receptor): ~11 nM and 11 ± 3 nM
